Source: ChEMBL document CHEMBL1201862, “PubChem BioAssay data set” (2004)
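The compound was tested at five concentrations on cells cultured in 96-well plates, with a 48-hour exposure period. Abbreviation: GI50, concentration required for 50% inhibition of growth.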 Active and inactive are the calls of the source. Cut-off read from the data, not from the text of the source: active = GI50 up to about 1.1 µM and inactive = higher.

How the values were obtained:
Test in all cases: NCI-60 cell line screen, 48 h
OVCAR-4 = test system: OVCAR-4
HCT-15 = test system: HCT-15
K562 = test system: K562
SF-295 = test system: SF-295
M14 = test system: M14
T47D = test system: T47D
786-0 = test system: 786-0
DU-145 = test system: DU-145
Hs-578T = test system: Hs-578T
SR = test system: SR
SK-MEL-5 = test system: SK-MEL-5
NCI-H23 = test system: NCI-H23
TK-10 = test system: TK-10
UO-31 = test system: UO-31
SK-MEL-28 = test system: SK-MEL-28
MDA-MB-435 = test system: MDA-MB-435
SN12C = test system: SN12C
LOX IMVI = test system: LOX IMVI
Malme-3M = test system: Malme-3M

SMILES	GI50 (OVCAR-4)	GI50 (HCT-15)	GI50 (K562)	GI50 (SF-295)	GI50 (M14)	GI50 (T47D)	GI50 (786-0)	GI50 (DU-145)	GI50 (Hs-578T)	GI50 (SR)	GI50 (SK-MEL-5)	GI50 (NCI-H23)	GI50 (TK-10)	GI50 (UO-31)	GI50 (SK-MEL-28)	GI50 (MDA-MB-435)	GI50 (SN12C)	GI50 (LOX IMVI)	GI50 (Malme-3M)
CCOC(=O)CSc1nc(-c2ccccc2)c(C#N)c(=O)[nH]1	> 100 µM (inactive)	> 100 µM	> 100 µM (inactive)	> 100 µM (inactive)	> 100 µM (inactive)	> 100 µM (inactive)	> 100 µM (inactive)	> 100 µM (inactive)	> 100 µM (inactive)	> 100 µM (inactive)	> 100 µM (inactive)	> 100 µM (inactive)	> 100 µM (inactive)	> 100 µM (inactive)	> 100 µM (inactive)	> 100 µM (inactive)	> 100 µM (inactive)		
O=C(CC(=O)N1N=C(c2ccccc2)C(/N=N/c2ccc(S(=O)(=O)CCOS(=O)(=O)O)cc2)C1=O)Nc1ccc(Cl)cc1 (stereo not drawn)		8.61 µM	7.5 µM (inactive)	> 100 µM (inactive)	28.1 µM (inactive)	> 100 µM (inactive)	> 100 µM (inactive)	> 100 µM (inactive)	20.6 µM (inactive)	> 100 µM (inactive)	> 100 µM (inactive)	> 100 µM (inactive)	> 100 µM (inactive)	40.3 µM (inactive)	> 100 µM (inactive)	> 100 µM (inactive)	86.5 µM (inactive)	84.1 µM (inactive)	> 100 µM (inactive)
COC(CNC(=O)CNC(=O)c1ccc(C(F)(F)F)cc1)OC		> 100 µM	> 100 µM (inactive)	> 100 µM (inactive)	> 100 µM (inactive)	> 100 µM (inactive)	> 100 µM (inactive)	> 100 µM (inactive)	> 100 µM (inactive)	> 100 µM (inactive)	> 100 µM (inactive)	> 100 µM (inactive)	> 100 µM (inactive)	> 100 µM (inactive)		> 100 µM (inactive)	> 100 µM (inactive)		> 100 µM (inactive)
COc1cc(/C=C2\N=C(c3ccccc3)N(c3nc4c(OC)ccc(OC)c4s3)C2=O)ccc1O		70.1 µM	18.1 µM (inactive)	79.1 µM (inactive)	88.5 µM (inactive)	5.47 µM (inactive)	39.4 µM (inactive)	28.8 µM (inactive)	48.8 µM (inactive)	30 µM (inactive)	54.8 µM (inactive)	> 100 µM (inactive)	58.1 µM (inactive)	76.7 µM (inactive)	> 100 µM (inactive)	20.1 µM (inactive)	> 100 µM (inactive)	24 µM (inactive)	85.7 µM (inactive)
O=C(/C=C/c1ccc2c(c1)OCO2)c1ccccc(=O)c1O	26.5 µM (inactive)	3.85 µM	6.84 µM (inactive)			20.9 µM (inactive)	8.32 µM (inactive)	17.3 µM (inactive)	7.8 µM (inactive)	> 100 µM (inactive)	7.66 µM (inactive)		18.8 µM (inactive)	13.6 µM (inactive)	21.2 µM (inactive)	13.9 µM (inactive)	21.7 µM (inactive)	19.9 µM (inactive)	23.3 µM (inactive)
O=C1NC(=O)C(c2c[nH]c3ccccc23)=C1c1cn(C(c2ccccc2)(c2ccccc2)c2ccccc2)cn1	4.06 µM (inactive)	3.66 µM	4.2 µM (inactive)	5.27 µM (inactive)	4.76 µM (inactive)	7.19 µM (inactive)	6.52 µM (inactive)	19.6 µM (inactive)	20.8 µM (inactive)	2.7 µM (inactive)	7.57 µM (inactive)	6.35 µM (inactive)	10.7 µM (inactive)		16.2 µM (inactive)	3.92 µM (inactive)	5.7 µM (inactive)	6.95 µM (inactive)	10.4 µM (inactive)
CCCC1(NC(=O)C(F)(F)F)CC(OC)OC2COC(c3ccccc3)OC21 (stereo not drawn)	6.25 µM (inactive)	55.7 µM	35.3 µM (inactive)	50.7 µM (inactive)	26.8 µM (inactive)	59.4 µM (inactive)	76.2 µM (inactive)	79.3 µM (inactive)	> 100 µM (inactive)	24.8 µM (inactive)	16.9 µM (inactive)	34.5 µM (inactive)		35 µM (inactive)	> 100 µM (inactive)	18.1 µM (inactive)	> 100 µM (inactive)	64.9 µM (inactive)	44.7 µM (inactive)
O=C(O)CCC(/N=C(\C(=N\C(CCC(=O)O)C(=O)O)c1ccccc1)c1ccccc1)C(=O)O (stereo not drawn)	> 100 µM (inactive)	> 100 µM	> 100 µM (inactive)	> 100 µM (inactive)	> 100 µM (inactive)	> 100 µM (inactive)	> 100 µM (inactive)	> 100 µM (inactive)	> 100 µM (inactive)	> 100 µM (inactive)		> 100 µM (inactive)	> 100 µM (inactive)	> 100 µM (inactive)	> 100 µM (inactive)	> 100 µM (inactive)	> 100 µM (inactive)	> 100 µM (inactive)	
